In ChEMBL document CHEMBL2407041, “Identification of potent Yes1 kinase inhibitors using a library screening approach” (Bioorg Med Chem Lett, 2013):

Key:
[1] = molecular target: T1, Tyrosine-protein kinase Yes (Homo sapiens, UniProt P07947); assay: Inhibition of Yes1 (unknown origin) assessed as kinase-dependent enzymatic production of ADP from ATP using coupled luminescence-based reaction by ADP-Glo kinase assay
[2] = molecular target: T1, Tyrosine-protein kinase Yes; assay: Inhibition of Yes1 (unknown origin) by [gamma-33P]-ATP radiolabeled enzyme activity assay
[3] = Antiproliferative activity against human Rh30 cells after 48 hrs by CellTiter-Glo luminescent assay; settings: SJRH30, 48 h
RD = assay: Antiproliferative activity against human RD cells after 48 hrs by CellTiter-Glo luminescent assay

T1 sequence (P07947 whole entry): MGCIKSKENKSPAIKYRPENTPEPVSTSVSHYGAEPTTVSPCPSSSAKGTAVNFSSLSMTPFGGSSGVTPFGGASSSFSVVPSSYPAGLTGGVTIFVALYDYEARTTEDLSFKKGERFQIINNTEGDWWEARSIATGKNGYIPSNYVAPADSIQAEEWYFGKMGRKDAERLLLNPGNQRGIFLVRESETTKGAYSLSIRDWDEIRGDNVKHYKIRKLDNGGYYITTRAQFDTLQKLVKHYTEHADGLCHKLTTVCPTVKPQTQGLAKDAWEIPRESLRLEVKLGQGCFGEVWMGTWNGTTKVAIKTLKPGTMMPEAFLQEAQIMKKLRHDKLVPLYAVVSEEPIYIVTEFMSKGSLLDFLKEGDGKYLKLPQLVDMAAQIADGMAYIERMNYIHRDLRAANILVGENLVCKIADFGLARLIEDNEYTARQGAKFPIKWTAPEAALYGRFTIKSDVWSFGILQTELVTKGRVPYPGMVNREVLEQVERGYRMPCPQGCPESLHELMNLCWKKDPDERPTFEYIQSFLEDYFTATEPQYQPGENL

IC50 [1] [nM] | IC50 [2] [nM] | Structure (SMILES) | IC50 [3] [nM] | IC50 (RD) [nM]
2670 | 240 | CN1CCC(CNc2ccc3ncc(-c4cccc(OC(F)(F)F)c4)n3n2)CC1 [SGI-1776] | – | –
39.1 | 3 | CC(C)Oc1cc(Nc2nc(N[C@@H](C)c3ccc(F)cn3)ncc2Cl)n[nH]1 | 1800 | 5300

Structure (SMILES) | IC50 [1] [nM] | IC50 [2] [nM] | IC50 [3] [nM] | IC50 (RD) [nM]
c1cc(-c2cnn3cc(-c4ccc(OCCN5CCCCC5)cc4)cnc23)ccn1 [DORSOMORPHIN] | 196 | 29.8 | – | –
